# According to paper PMC11696576, “Next generation thiazolyl ketone inhibitors of cytosolic phospholipase A2 α for targeted cancer therapy” (Nature Communications, 2025):
# “And” between values parts separate entries of the source, which are not always exact repeats. Equal entries are not always repeated.
# Tests used:
# whole blood = experiment: eicosanoid release from LPS-stimulated whole blood; assay type: cell-based, human; set-up: LTB4 / 5-HETE / 11,12-EET / 12-HETE: unit not given here; conditions: for 15-HETE level, whole blood / PGE2 level, whole blood / TxB2 level, whole blood: individual replicate
# Source text: In whole blood, bacterial lipopolysaccharide (LPS) stimulated the release of PGE2, thromboxane B2 (TXB2), and 15-hydroxyeicosatetraenoic acid (HETE). […] The levels of leukotriene B4 (LTB4), 12-HETE, 5-HETE and 11,12-epoxyeicosatrienoic acid (EET) were not affected by LPS stimulation but increased when exogenous AA was included, irrespective of the presence of GK420 (Fig. S1a).
# Fig. 3 Ex vivo suppression of eicosanoid production by GK420. a Eicosanoid levels (pmol/mL) in the plasma of whole blood pretreated with vehicle (DMSO), 3, 10 or 30 µM GK420,) 10 µM arachidonyl trifluoromethyl ketone (ATK), or 1 μM indomethacin (Indo) before stimulation with 1 µg/mL LPS for 24 h. […] All box and whisker plots show the mean (center line), stdev (box), and min and max values (whiskers) from 4 biological replicates. P-values were determined using RM-one way ANOVA with Dunnett’s correction for multiple comparisons.
# Aliquots of 0.4 mL of heparinized whole blood were mixed with 1.6 mL of serum-free RPMI cultivation medium with- or without indomethacin (# I7378, Sigma-Aldrich), GK420, or arachidonyl trifluoromethyl ketone (ATK) (Cayman #62120), prior to the addition of lipopolysaccharides (LPS) (1 μg/mL) to activate the cPLA2α enzyme (LPS was from E. coli 026:B6 γ-irradiated, #L2654, Sigma-Aldrich). Exogenous arachidonic acid (5–10 µM) (#3555, Sigma-Aldrich) was added after 23.5 h, for the final 30 mins of the 24 h stimulation. Following treatment (24 h, 37 °C, 5% CO2), the diluted blood was centrifuged (5992 × g for 10 min at 4 °C) to isolate the plasma from the cell fraction. Plasma samples were stored at −80 °C until analysis. Samples were analyzed at the Lipid Maps Consortium, UCSD according to the standard methods. 200 µL of sample was subjected to solid phase extraction of the eicosanoids using the StrataX solid phase extraction columns from Phenomenex and analyzed by UHPLC-MS/MS using full standards mix.
# CD3+ T-cells = experiment: viability of healthy T-cells, propidium iodide exclusion; assay type: cell-based
# Procedure: Data are the mean ± stdev of 3 biological replicates. […] Data are the mean ± stdev of 3 biological replicates.
# Propidium iodide exclusion was used to assess cell death by flow cytometry. After treatment, the cells were washed once with PBS and stained with 1.4 μg/mL propidium iodide (PI) for 5 min before quantification of PI negative and positive cells using a CytoFLEX flow cytometer (California, United States). An example of the gating strategy to assess PI staining can be found in Fig. S8c. […]
# The propidium iodide exclusion assay was used to assess vi-ability of ungated PBMCs treated with AVX420 at the indicated doses for 24 hours .
# Data are the mean ±stdev from 8 biological replicates (1-16 µM) and 5 biological rep- […]
# iodide exclusion in CD3+ lymphocytes (T-cells). Cells appearing in the bottom right quadrant are PI-negative (live) T-cells while cells in the top right quadrant are PI-posi- […]
# (1 picture or pasted object on this page, not shown here)
# [1] = target: T1, human calcium-independent GVIA iPLA2 (Homo sapiens, UniProt O60733); set-up: method as in PMID 25152071; conditions: 0.091 mole fraction; previously published data ref 19; cited from earlier work
# T1 sequence (O60733 1-806): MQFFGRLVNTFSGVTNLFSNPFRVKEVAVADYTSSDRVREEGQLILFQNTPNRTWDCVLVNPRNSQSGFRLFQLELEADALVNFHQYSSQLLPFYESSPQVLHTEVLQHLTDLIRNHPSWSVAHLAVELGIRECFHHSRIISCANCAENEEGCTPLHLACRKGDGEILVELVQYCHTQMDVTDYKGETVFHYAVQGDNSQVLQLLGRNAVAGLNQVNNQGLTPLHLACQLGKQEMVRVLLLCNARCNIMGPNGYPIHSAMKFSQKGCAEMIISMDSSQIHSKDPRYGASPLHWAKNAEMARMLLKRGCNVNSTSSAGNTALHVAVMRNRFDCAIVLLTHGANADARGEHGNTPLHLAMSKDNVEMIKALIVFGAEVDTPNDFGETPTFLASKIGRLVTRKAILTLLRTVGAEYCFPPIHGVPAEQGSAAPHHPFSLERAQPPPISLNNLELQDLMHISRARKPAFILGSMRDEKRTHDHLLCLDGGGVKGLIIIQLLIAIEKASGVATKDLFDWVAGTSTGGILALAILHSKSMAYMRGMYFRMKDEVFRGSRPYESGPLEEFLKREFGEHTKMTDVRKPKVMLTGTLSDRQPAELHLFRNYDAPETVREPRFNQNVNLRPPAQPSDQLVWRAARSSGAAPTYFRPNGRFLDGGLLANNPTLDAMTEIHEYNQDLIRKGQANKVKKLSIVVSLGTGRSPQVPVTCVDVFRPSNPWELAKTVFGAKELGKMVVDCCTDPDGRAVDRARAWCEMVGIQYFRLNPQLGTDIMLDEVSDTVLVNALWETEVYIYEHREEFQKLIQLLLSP
# [2] = 10 uM + LPS + AA, listed as AVX420
# [3] = Figure 6c, 32 µM, listed as AVX420
structure (smiles),measurement,setting,value
CCCCCCCOc1ccc(OCC(=O)c2nc(C(=O)OC)cs2)cc1 [GK420],"15-HETE level, whole blood",whole blood; 3 uM + LPS,0.23 pmol/mL and 1.1 pmol/mL and 0.41 pmol/mL and 0.42 pmol/mL
same,"PGE2 level, whole blood",whole blood; 3 uM + LPS,0.2 pmol/mL and 2.5 pmol/mL and 0.7 pmol/mL and 0.9 pmol/mL
same,"TxB2 level, whole blood",whole blood; 3 uM + LPS,1 pmol/mL and 10.1 pmol/mL and 3.2 pmol/mL and 4.5 pmol/mL
same,"15-HETE level, whole blood",whole blood; 10 uM + LPS + AA,68.15 pmol/mL and 72.88 pmol/mL and 78.71 pmol/mL and 78.11 pmol/mL
same,"PGE2 level, whole blood",whole blood; 10 uM + LPS + AA,11.8 pmol/mL and 18.9 pmol/mL and 15.6 pmol/mL and 18.2 pmol/mL
same,"TxB2 level, whole blood",whole blood; 10 uM + LPS + AA,14.6 pmol/mL and 27.5 pmol/mL and 24.1 pmol/mL and 18.1 pmol/mL
same,5-HETE,whole blood; [2],59.11 and 60.82 and 63.51 and 71.56
same,"11,12-EET",whole blood; [2],12.46 and 11.85 and 10.02 and 12.34
same,12-HETE,whole blood; [2],73 and 139.7 and 83.5 and 77.9
same,LTB4,whole blood; [2],0.6 and 0.8
same,"15-HETE level, whole blood",whole blood; 10 uM + LPS,0.65 pmol/mL and 0.26 pmol/mL and 0.51 pmol/mL and 0.31 pmol/mL
same,"PGE2 level, whole blood",whole blood; 10 uM + LPS,1.7 pmol/mL and 0.3 pmol/mL and 0.7 pmol/mL and 0.1 pmol/mL
same,"TxB2 level, whole blood",whole blood; 10 uM + LPS,8.4 pmol/mL and 1.9 pmol/mL and 2.9 pmol/mL and 0.8 pmol/mL
same,"15-HETE level, whole blood",whole blood; 30 uM + LPS,0.31 pmol/ml (2×) and 0.35 pmol/ml and 0.42 pmol/ml
same,"PGE2 level, whole blood",whole blood; 30 uM + LPS,0.05 pmol/ml and 0.4 pmol/ml and 0.1 pmol/ml (2×)
same,"TxB2 level, whole blood",whole blood; 30 uM + LPS,0.2 pmol/mL and 3.4 pmol/mL and 1.2 pmol/mL and 1.5 pmol/mL
same,"production of PGE2, TXB2 and 15-HETE","whole blood; whole blood, LPS",suppressed their production
same,"production of PGE2, TXB2 and 15-HETE with excess free AA","whole blood; whole blood, LPS + exogenous free AA",no effect
same,PI Negative,"CD3+ T-cells; Figure 6c, 2 µM, listed as AVX420",96 and 98 and 95 and 91 and 89 and 97
same,PI Negative,"CD3+ T-cells; Figure 6c, 8 µM, listed as AVX420",96 and 98 and 94 and 90 and 87 and 95 and 93
same,PI Negative,"CD3+ T-cells; Figure 6c, 16 µM, listed as AVX420",96 and 98 and 94 and 90 and 84 and 91
same,PI Negative,CD3+ T-cells; [3],92 and 94 and 89 and 91 and 90
same,PI Positive,CD3+ T-cells; [3],6 and 11 and 9 and 10 and 8
same,effect on healthy CD3+ T-cells,CD3+ T-cells; up to a maximum dose tested of 32 µM,no effect
CCCCCCCCc1ccc(OCC(=O)c2nc(C(=O)OC)cs2)cc1 [GK470],GVIA iPLA2 % Inhib,[1],86%
